Source: PubChem BioAssay AID330 (DTP/NCI, 2004)
Values joined by “and” are separate entries in the source; they are usually repeats but may differ in a detail not shown here. Identical values can stand only once. Toxic doses and inconclusive results are not listed.

Tested on: P388 leukemia ip, CD2F1 mice, survival T/C
Assay: NCI In Vivo Anticancer Drug Screen. Data for tumor model P388 Leukemia (intraperitoneal) in CD2F1 (CDF1) mice
Conditions: endpoint: median survival time, higher = longer survival
How it was run: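 Mice carrying the transplanted tumor received test compound or vehicle. Survival was recorded in each group, and the value is the treated-group measurement divided by that of the vehicle-treated control group.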

[1] = dose: 50.0 mg/kg/injection, schedule: Q01DX009 (ip), vehicle: saline
[2] = dose: 100.0 mg/kg/injection, schedule: Q01DX009 (ip), vehicle: saline
[3] = dose: 60.0 mg/kg/injection, schedule: Q01DX005 (ip), vehicle: saline with Tween-80
[4] = dose: 120.0 mg/kg/injection, schedule: Q01DX005 (ip), vehicle: saline with Tween-80
[5] = dose: 240.0 mg/kg/injection, schedule: Q01DX005 (ip), vehicle: saline with Tween-80
[6] = dose: 50.0 mg/kg/injection, schedule: Q01DX009 (ip), vehicle: saline with Tween-80
[7] = dose: 100.0 mg/kg/injection, schedule: Q01DX009 (ip), vehicle: saline with Tween-80
[8] = dose: 200.0 mg/kg/injection, schedule: Q01DX009 (ip), vehicle: saline with Tween-80
[9] = dose: 50.0 mg/kg/injection, schedule: Q01DX009 (ip), vehicle: Klucel (hydroxypropylcellulose) (HPC)
[10] = dose: 100.0 mg/kg/injection, schedule: Q01DX009 (ip), vehicle: Klucel (hydroxypropylcellulose) (HPC)
[11] = dose: 25.0 mg/kg/injection, schedule: Q01DX009 (ip), vehicle: saline with Tween-80
[12] = dose: 100.0 mg/kg/injection, schedule: Q04DX002 (ip), vehicle: saline with Tween-80
[13] = dose: 200.0 mg/kg/injection, schedule: Q04DX002 (ip), vehicle: saline with Tween-80
[14] = dose: 200.0 mg/kg/injection, schedule: Q01DX009 (ip), vehicle: Klucel (hydroxypropylcellulose) (HPC)
[15] = dose: 100.0 mg/kg/injection, schedule: Q04DX003 (ip), vehicle: saline with Tween-80
[16] = dose: 200.0 mg/kg/injection, schedule: Q04DX003 (ip), vehicle: saline with Tween-80
[17] = dose: 400.0 mg/kg/injection, schedule: Q04DX003 (ip), vehicle: saline with Tween-80

## CC(C)=CCc1c(-c2ccc(O)cc2O)oc2c([C@H]3C=C(C)CC(c4ccc(O)cc4O)[C@@H]3C(=O)c3ccc(O)cc3O)c(O)cc(O)c2c1=O (some centres not stated)
dose: 8.75 mg/kg/injection, schedule: Q01DX005 (ip), vehicle: Klucel (hydroxypropylcellulose) (HPC)
  T/C: 99 % of control
dose: 17.5 mg/kg/injection, schedule: Q01DX005 (ip), vehicle: Klucel (hydroxypropylcellulose) (HPC)
  T/C: 98 % of control
dose: 35.0 mg/kg/injection, schedule: Q01DX005 (ip), vehicle: Klucel (hydroxypropylcellulose) (HPC)
  T/C: 92 % of control
dose: 70.0 mg/kg/injection, schedule: Q01DX005 (ip), vehicle: Klucel (hydroxypropylcellulose) (HPC)
  T/C: 92 % of control
dose: 140.0 mg/kg/injection, schedule: Q01DX005 (ip), vehicle: Klucel (hydroxypropylcellulose) (HPC)
  T/C: 108 % of control

## O=C(CC1=NC2NN(c3ccccc3)C(=O)C2=C1CC(=O)c1cccc2ccccc12)c1cccc2ccccc12 (configuration not stated)
dose: 50.0 mg/kg/injection, schedule: Q01DX005 (ip), vehicle: saline with Tween-80
  T/C: 107 % of control
dose: 100.0 mg/kg/injection, schedule: Q01DX005 (ip), vehicle: saline with Tween-80
  T/C: 107 % of control
dose: 200.0 mg/kg/injection, schedule: Q01DX005 (ip), vehicle: saline with Tween-80
  T/C: 107 % of control

## Cc1c2cc3c(cc2cc2c4cc5c(cc4cc[n+]12)OCO5)OCO3 (tested in a mixture with another compound)
dose: 0.44 mg/kg/injection, schedule: Q04DX003 (ip), vehicle: saline
  T/C: 122 % of control
dose: 5.0 mg/kg/injection, schedule: Q04DX003 (ip), vehicle: saline
  T/C: 154 % of control
dose: 7.5 mg/kg/injection, schedule: Q04DX003 (ip), vehicle: saline
  T/C: 150 % of control

## CN=C(NC#N)NCCSCc1ccc2ccccc2n1
dose: 50.0 mg/kg/injection, schedule: Q01DX005 (ip), vehicle: distilled water + Tween-80 + alcohol
  T/C: 115 % of control
dose: 100.0 mg/kg/injection, schedule: Q01DX005 (ip), vehicle: distilled water + Tween-80 + alcohol
  T/C: 94 % of control

## Cn1cnc([N+](=O)[O-])c1C(=O)O
[1]
  T/C: 107 % of control
[2]
  T/C: 89 % of control

## CCCCOC(=O)NC(=O)c1cc2cc(Br)cc(Br)c2oc1=O
[3]
  T/C: 94 % of control
[4]
  T/C: 101 % of control
[5]
  T/C: 92 % of control

## C1SSCSSS1
[6]
  T/C: 115 % of control
[7]
  T/C: 117 % of control
[8]
  T/C: 111 % of control

## Cc1ccc(SSc2nnnn2C)cc1
[9]
  T/C: 100 % of control
[10]
  T/C: 88 % of control

## COC(=O)Nc1ccc(Cc2ccc(NC(=O)OC)cc2)cc1
[11]
  T/C: 101 % of control and 104 % of control

## CNCc1c(O)ccc2c(-c3ccccc3)cc(=O)oc12
[12]
  T/C: 100 % of control
[13]
  T/C: 101 % of control

## COC(=O)N1c2ccccc2C(c2ccccc2)=NC1(C)C#N (configuration not stated)
[3]
  T/C: 98 % of control
[4]
  T/C: 99 % of control
[5]
  T/C: 100 % of control

## CCOC(=O)C(=O)Nc1c(C(=O)OC)cc(C)c(C)c1C#N
[9]
  T/C: 93 % of control
[10]
  T/C: 94 % of control
[14]
  T/C: 93 % of control

## CC1=NN(C(=O)c2ccncc2)C(=O)C1N=Nc1ccc(-c2ccc(N)cc2)cc1 (configuration not stated)
[6]
  T/C: 97 % of control
[7]
  T/C: 98 % of control
[8]
  T/C: 96 % of control

## Cc1ccc(S(=O)(=O)OCC2COC(C(C)C)OC2)cc1 (configuration not stated)
[3]
  T/C: 99 % of control
[4]
  T/C: 90 % of control
[5]
  T/C: 90 % of control

## CCOC(=O)C1C(CCC#N)C(=O)CCC1(C#N)c1ccccc1 (configuration not stated)
dose: 100.0 mg/kg/injection, schedule: Q01DX001 (ip), vehicle: saline
  T/C: 105 % of control
dose: 200.0 mg/kg/injection, schedule: Q01DX001 (ip), vehicle: saline
  T/C: 100 % of control
dose: 400.0 mg/kg/injection, schedule: Q01DX001 (ip), vehicle: saline
  T/C: 105 % of control

## O=[N+]([O-])c1ccc(CN2CCC(C(=S)Nc3ccccc3)=C2c2ccccc2)cc1
dose: 6.25 mg/kg/injection, schedule: Q01DX005 (ip), vehicle: Klucel (hydroxypropylcellulose) (HPC)
  T/C: 92 % of control
dose: 12.5 mg/kg/injection, schedule: Q01DX005 (ip), vehicle: Klucel (hydroxypropylcellulose) (HPC)
  T/C: 90 % of control
dose: 25.0 mg/kg/injection, schedule: Q01DX005 (ip), vehicle: Klucel (hydroxypropylcellulose) (HPC)
  T/C: 87 % of control
dose: 100.0 mg/kg/injection, schedule: Q01DX005 (ip), vehicle: Klucel (hydroxypropylcellulose) (HPC)
  T/C: 92 % of control
dose: 200.0 mg/kg/injection, schedule: Q01DX005 (ip), vehicle: Klucel (hydroxypropylcellulose) (HPC)
  T/C: 87 % of control

## O=C(O)CNc1ccccc1.[Cu+2]
dose: 6.25 mg/kg/injection, schedule: Q01DX001 (ip), vehicle: Klucel (hydroxypropylcellulose) (HPC)
  T/C: 98 % of control
dose: 12.5 mg/kg/injection, schedule: Q01DX001 (ip), vehicle: Klucel (hydroxypropylcellulose) (HPC)
  T/C: 98 % of control
dose: 25.0 mg/kg/injection, schedule: Q01DX001 (ip), vehicle: Klucel (hydroxypropylcellulose) (HPC)
  T/C: 101 % of control and 112 % of control

## ClC1COc2cc(c3ccccc3c2)-c2c(ccc3ccccc23)OCCOCCOc2ccc3ccccc3c2-c2c(ccc3ccccc23)OCC(Cl)O1 (configuration not stated)
[12]
  T/C: 102 % of control
[13]
  T/C: 102 % of control
dose: 400.0 mg/kg/injection, schedule: Q04DX002 (ip), vehicle: saline with Tween-80
  T/C: 105 % of control

## CS(=O)(=O)Oc1ccc2c(c1)CCC2
dose: 50.0 mg/kg/injection, schedule: Q04DX003 (ip), vehicle: saline
  T/C: 99 % of control
dose: 100.0 mg/kg/injection, schedule: Q04DX003 (ip), vehicle: saline
  T/C: 101 % of control
dose: 200.0 mg/kg/injection, schedule: Q04DX003 (ip), vehicle: saline
  T/C: 108 % of control
dose: 400.0 mg/kg/injection, schedule: Q04DX003 (ip), vehicle: saline
  T/C: 102 % of control

## CC(C)=CCCC(C)CCC1NC(C(=O)O)CS1 (configuration not stated)
[1]
  T/C: 94 % of control
[2]
  T/C: 94 % of control
dose: 200.0 mg/kg/injection, schedule: Q01DX009 (ip), vehicle: saline
  T/C: 95 % of control

## O=C1NC(=O)C2(N1)C1CCCCC2C(c2ccccc2)NC1c1ccccc1 (configuration not stated)
dose: 100.0 mg/kg/injection, schedule: Q01DX001 (ip), vehicle: saline with Tween-80
  T/C: 100 % of control
dose: 200.0 mg/kg/injection, schedule: Q01DX001 (ip), vehicle: saline with Tween-80
  T/C: 98 % of control
dose: 400.0 mg/kg/injection, schedule: Q01DX001 (ip), vehicle: saline with Tween-80
  T/C: 96 % of control

## COc1ccc(C(c2c(O)cc(C)[nH]c2=O)c2c(O)cc(C)[nH]c2=O)cc1F
[6]
  T/C: 97 % of control
[7]
  T/C: 96 % of control
[8]
  T/C: 95 % of control

## CN1N=C(c2ccccc2O)/C(=C/c2c(-c3ccccc3O)[nH]n(C)c2=O)C1=O
[3]
  T/C: 94 % of control
[4]
  T/C: 86 % of control
[5]
  T/C: 87 % of control

## CC(O)C(NCNC(=O)C1=C(O)C2(O)C(=O)C3=C(O)c4c(O)cccc4C(C)(O)C3CC2C(N(C)C)C1=O)C(=O)O (configuration not stated)
dose: 25.0 mg/kg/injection, schedule: Q01DX005 (ip), vehicle: saline
  T/C: 107 % of control
dose: 50.0 mg/kg/injection, schedule: Q01DX005 (ip), vehicle: saline
  T/C: 108 % of control
dose: 100.0 mg/kg/injection, schedule: Q01DX005 (ip), vehicle: saline
  T/C: 111 % of control
[15]
  T/C: 104 % of control
dose: 200.0 mg/kg/injection, schedule: Q01DX005 (ip), vehicle: saline
  T/C: 100 % of control
[16]
  T/C: 104 % of control
[17]
  T/C: 104 % of control

## O=C1CCc2nc3ccccc3c(=O)n21
[9]
  T/C: 96 % of control
[10]
  T/C: 96 % of control
[14]
  T/C: 94 % of control
dose: 400.0 mg/kg/injection, schedule: Q01DX009 (ip), vehicle: Klucel (hydroxypropylcellulose) (HPC)
  T/C: 100 % of control

## CCn1c(=O)c2[nH]c(C(F)(F)F)nc2n(CC)c1=O
dose: 25.0 mg/kg/injection, schedule: Q01DX009 (ip), vehicle: Klucel (hydroxypropylcellulose) (HPC)
  T/C: 86 % of control
[9]
  T/C: 99 % of control

## O=C(N/N=C/c1ccccc1O)C(O)(c1ccccc1)c1ccccc1
[15]
  T/C: 107 % of control
[16]
  T/C: 101 % of control
[17]
  T/C: 92 % of control

## O=C1OCC23CC(=O)C(O)(c4oc(CO)cc(=O)c4O)C(CC12)O3 (configuration not stated)
[11]
  T/C: 97 % of control
[6]
  T/C: 100 % of control
[7]
  T/C: 100 % of control
